Literature values in PMC11505029, “Isatin Bis-Imidathiazole Hybrids Identified as FtsZ Inhibitors with On-Target Activity Against Staphylococcus aureus” (Antibiotics, 2024).

Columns and labels:
Set-up in all cases: method as in PMID 36144518
S. aureus ATCC 25923 = details: cited from earlier work
E. coli ATCC 25922 = details: 100 μM; mean ± SD; cited from earlier work
[1] = tested on: Vero cell line (ATCC CCL-81); details: 100 μM; mean ± SD; cited from earlier work
C. albicans ATCC 10231 = details: 100 μM; mean ± SD; cited from earlier work

## COc1ccc2c(c1)C(c1c(Cl)nc3sccn13)(c1c(Cl)nc3sccn13)C(=O)N2 [Compound 6k]
S. aureus ATCC 25923; 100 μM, mean ± SD
  Microbial growth, S. aureus: 43.4 ± 5.6%
S. aureus ATCC 25923; S. aureus, lead compounds
  IC50: 80 µM
E. coli ATCC 25922
  Microbial growth, E. coli: 102.7 ± 2.4%
[1]
  Cell proliferation, Vero: 70.9 ± 5.6%
C. albicans ATCC 10231
  Microbial growth, C. albicans: 104.1 ± 1.9%
